Type in all cases: cell-based
Test [1] concerns the target T1, PTGER2 (EP2) (Homo sapiens, UniProt P43116).
T1 construct: host or cells: HEK 293 (PathHunter PTGER2 b-arrestin cell line)
The experiment in a line: hEP2 b-arrestin assay (PathHunter HEK 293 PTGER2 b-arrestin cells). Particulars: antagonistic activity, beta-arrestin assay; read-out: hEP2 b-arr IC50. A digest of the protocol: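 Antagonism measured as inhibition of PGE2-driven β-arrestin 2 recruitment (enzyme fragment complementation, luminescence) in engineered HEK293 EP2 cells. Agonist: 5 μM PGE2, ~EC80, 120 min at 37 °C after 15 min compound preincubation; test range 10 μM-2 nM or 1 μM-0.2 nM, duplicates, IC50 fitted.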

Test [2] addresses T2, PTGER4 (EP4) (Homo sapiens, UniProt P35408).
T2 construct: host or cells: HEK 293 (PathHunter PTGER4 b-arrestin cell line)
The experiment in a line: hEP4 b-arrestin assay (PathHunter HEK 293 PTGER4 b-arrestin cells). The note with it: antagonistic activity, beta-arrestin assay; read-out: hEP4 b-arr IC50. A digest of the protocol: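 β-Arrestin recruitment to EP4 was read as enzyme-fragment-complementation chemiluminescence in stably transfected HEK 293 cells. After 15 min compound preincubation at 37 °C (ranges 10 μM–2 nM or 1 μM–0.2 nM), cells were stimulated 120 min with PGE2 at 20 nM, its EC80. IC50 values were fitted from duplicates, with repeat measurements averaged.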

For test [3], the target named is T3, EP2 receptor (Homo sapiens, UniProt P43116).
T3 construct: SF295 glioblastoma cells express high endogenous EP2 and no EP4; host or cells: SF295 glioblastoma cells
Nature of the test: hEP2 cAMP assay (SF295 glioblastoma cells, HTRF cAMP, PGE2 stimulation). Particulars: antagonistic activity. Put shortly:
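HTRF cAMP readout gave % cAMP relative to DMSO, fitted to IC50 with duplicate points. Compounds were preincubated 45 min at room temperature with EP2-expressing, EP4-negative SF295 cells in IBMX (2 mM)-containing buffer before a 30 min challenge with PGE2 at 75 nM final, its EC80.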

Molecules are shown by their SMILES.

T2 sequence (P35408 whole entry): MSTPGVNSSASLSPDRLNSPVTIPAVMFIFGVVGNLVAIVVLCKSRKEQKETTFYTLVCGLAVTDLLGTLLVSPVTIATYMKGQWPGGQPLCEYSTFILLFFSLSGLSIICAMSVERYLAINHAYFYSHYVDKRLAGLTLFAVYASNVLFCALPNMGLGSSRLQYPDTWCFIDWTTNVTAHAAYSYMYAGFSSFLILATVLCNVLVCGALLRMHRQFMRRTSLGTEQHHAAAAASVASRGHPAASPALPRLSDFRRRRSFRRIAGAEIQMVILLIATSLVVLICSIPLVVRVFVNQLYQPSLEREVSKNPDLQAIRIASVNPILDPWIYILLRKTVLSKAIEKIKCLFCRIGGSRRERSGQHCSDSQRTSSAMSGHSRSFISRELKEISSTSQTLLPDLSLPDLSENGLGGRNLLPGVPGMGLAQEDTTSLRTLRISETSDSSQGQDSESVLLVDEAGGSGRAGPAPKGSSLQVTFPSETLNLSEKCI
T1 sequence (P43116 whole entry): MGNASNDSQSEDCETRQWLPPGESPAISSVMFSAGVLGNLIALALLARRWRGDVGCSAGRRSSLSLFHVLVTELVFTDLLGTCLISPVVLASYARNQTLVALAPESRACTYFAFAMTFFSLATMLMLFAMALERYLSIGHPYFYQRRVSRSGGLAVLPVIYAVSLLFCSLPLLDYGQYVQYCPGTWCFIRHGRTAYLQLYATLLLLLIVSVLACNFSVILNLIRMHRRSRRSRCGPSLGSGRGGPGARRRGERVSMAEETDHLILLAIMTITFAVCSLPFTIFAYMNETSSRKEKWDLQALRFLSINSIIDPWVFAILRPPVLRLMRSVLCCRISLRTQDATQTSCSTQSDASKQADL
T3 sequence (P43116 whole entry): as above

The IC50 is the concentration at which inhibition is half-maximal. Take `Cc1cc(-c2cc(NCCc3c(C)oc4c(C)cc(F)cc34)ncn2)sc1C(=O)O` [Example 2, 5-{6-[2-(5-Fluoro-2,7-dimethyl-benzofuran-3-yl)-ethylamino]-pyrimidin-4-yl}-3-methyl-thiophene-2-carboxylic acid]: the values for the IC50 in test [1], in test [2] and in test [3] were 25 nM, 189 nM and 23 nM, respectively.

Regarding `Cc1cc(-c2cc(NCCc3c(C)sc4c(C)cccc34)ncn2)sc1C(=O)O` [Example 3, 5-{6-[2-(2,7-Dimethyl-benzo[b]thiophen-3-yl)-ethylamino]-pyrimidin-4-yl}-3-methyl-thiophene-2-carboxylic acid], the IC50 in test [1] stood at 18 nM; in test [2], 202 nM; in test [3], 18 nM.

For the compound `Cc1cc(-c2cc(NCCc3c(C)oc4c(C)cc(Cl)cc34)ncn2)sc1C(=O)O` [Example 4, 5-{6-[2-(5-Chloro-2,7-dimethyl-benzofuran-3-yl)-ethylamino]-pyrimidin-4-yl}-3-methyl-thiophene-2-carboxylic acid], the IC50 is 11 nM in test [1], 262 nM in test [2] and 33 nM in test [3].

For the compound `CSc1cc(-c2cc(NCCc3c(C)sc4c(C)cccc34)ncn2)ccc1C(=O)O` [Example 14, 4-{6-[2-(2,7-Dimethyl-benzo[b]thiophen-3-yl)-ethylamino]-pyrimidin-4-yl}-2-methylsulfanyl-benzoic acid], the IC50 in test [1] was found to be 4 nM; in test [2] it was 195 nM; in test [3], 6 nM.

Take `COc1ccc(Cl)c2c(CCNc3cc(-c4ccc(C(=O)O)c(SC)c4)ncn3)c(C)sc12` [Example 15, 4-{6-[2-(4-Chloro-7-methoxy-2-methyl-benzo[b]thiophen-3-yl)-ethylamino]-pyrimidin-4-yl}-2-methylsulfanyl-benzoic acid]: the figures for the IC50 in test [1], in test [2] and in test [3] were 6 nM, 168 nM and 21 nM, respectively.

`CSc1cc(-c2cc(NCCc3c(C)oc4c(C)cc(F)cc34)ncn2)ccc1C(=O)O` [Example 16, 4-{6-[2-(5-Fluoro-2,7-dimethyl-benzofuran-3-yl)-ethylamino]-pyrimidin-4-yl}-2-methylsulfanyl-benzoic acid]: the IC50 in test [1] was 13 nM; in test [2] it was 391 nM; in test [3], 21 nM.

For `CSc1cc(-c2cc(NCCc3c(C)sc4c(C)cc(F)cc34)ncn2)ccc1C(=O)O` [Example 17, 4-{6-[2-(5-Fluoro-2,7-dimethyl-benzo[b]thiophen-3-yl)-ethylamino]-pyrimidin-4-yl}-2-methylsulfanyl-benzoic acid], the IC50 came out at 5 nM in test [1], 248 nM in test [2] and 9 nM in test [3].

On to `CSc1cc(-c2cc(NCCc3c(C)oc4ccccc34)ncn2)ccc1C(=O)O` [Example 18, 4-{6-[2-(2-Methyl-benzofuran-3-yl)-ethylamino]-pyrimidin-4-yl}-2-methylsulfanyl-benzoic acid], for which the IC50 in test [1] was 1 nM; in test [2], 1200 nM; in test [3] it was 1 nM.

In the case of `CSc1cc(-c2cc(NCCc3c(C)sc4c(C)ccc(Cl)c34)ncn2)ccc1C(=O)O` [Example 19, 4-{6-[2-(4-Chloro-2,7-dimethyl-benzo[b]thiophen-3-yl)-ethylamino]-pyrimidin-4-yl}-2-methylsulfanyl-benzoic acid], the figures for the IC50 in test [1], in test [2] and in test [3] were 12 nM, 414 nM and 83 nM, respectively.

As to `CSc1cc(-c2cc(NCCc3c(C)sc4c(Cl)ccc(Cl)c34)ncn2)ccc1C(=O)O` [Example 20, 4-{6-[2-(4,7-Dichloro-2-methyl-benzo[b]thiophen-3-yl)-ethylamino]-pyrimidin-4-yl}-2-methylsulfanyl-benzoic acid], the half-inhibitory concentration (IC50) in test [1] was 30 nM; in test [2], 762 nM; in test [3], 26 nM.

Consider `CSc1cc(-c2cc(NCCc3c(C)sc4c(C)c(F)ccc34)ncn2)ccc1C(=O)O` [Example 21, 4-{6-[2-(6-Fluoro-2,7-dimethyl-benzo[b]thiophen-3-yl)-ethylamino]-pyrimidin-4-yl}-2-methylsulfanyl-benzoic acid], for which the results for the IC50 in test [1], in test [2] and in test [3] were 4 nM, 283 nM and 24 nM, respectively.

As to `CCc1oc2c(C)cc(F)cc2c1CCNc1cc(-c2ccc(C(=O)O)c(SC)c2)ncn1` [Example 22, 4-{6-[2-(2-Ethyl-5-fluoro-7-methyl-benzofuran-3-yl)-ethylamino]-pyrimidin-4-yl}-2-methylsulfanyl-benzoic acid], the IC50 in test [1] was 101 nM; in test [2] it was 493 nM; in test [3] it was 172 nM.

On to `CSc1cc(-c2cc(NCCc3c(C)sc4c(Cl)cc(F)cc34)ncn2)ccc1C(=O)O` [Example 23, 4-{6-[2-(7-Chloro-5-fluoro-2-methyl-benzo[b]thiophen-3-yl)-ethylamino]-pyrimidin-4-yl}-2-methylsulfanyl-benzoic acid], for which the IC50 is 9 nM in test [1], 488 nM in test [2] and 27 nM in test [3].

As for `CSc1cc(-c2cc(NCCc3c(C)sc4ccccc34)ncn2)ccc1C(=O)O` [Example 24, 4-{6-[2-(2-Methyl-benzo[b]thiophen-3-yl)-ethylamino]-pyrimidin-4-yl}-2-methylsulfanyl-benzoic acid], the results for the concentration for half-maximal inhibition (IC50) in test [1], in test [2] and in test [3] were 3 nM, 3420 nM and 4 nM, respectively.

Consider `CCOc1cc(-c2cc(NCCc3c(C)sc4c(C)ccc(F)c34)ncn2)sc1C(=O)O` [Example 25, 3-Ethoxy-5-{6-[2-(4-fluoro-2,7-dimethyl-benzo[b]thiophen-3-yl)-ethylamino]-pyrimidin-4-yl}-thiophene-2-carboxylic acid], for which the results for the IC50 in test [1], in test [2] and in test [3] were 2 nM, 7 nM and 8 nM, respectively.

`CCOc1cc(-c2cc(NCCc3c(C)sc4c(OC)ccc(F)c34)ncn2)sc1C(=O)O` [Example 28, 3-Ethoxy-5-{6-[2-(4-fluoro-7-methoxy-2-methyl-benzo[b]thiophen-3-yl)-ethylamino]-pyrimidin-4-yl}-thiophene-2-carboxylic acid]: the IC50 in test [1] was 2 nM; in test [2], 5 nM; in test [3] it was 11 nM.

For `CCOc1cc(-c2cc(NCCc3c(C)sc4c(C)ccc(Cl)c34)ncn2)sc1C(=O)O` [Example 29, 5-{6-[2-(4-Chloro-2,7-dimethyl-benzo[b]thiophen-3-yl)-ethylamino]-pyrimidin-4-yl}-3-ethoxy-thiophene-2-carboxylic acid], the results for the IC50 in test [1], in test [2] and in test [3] were 14 nM, 25 nM and 14 nM, respectively.

For `CCOc1cc(-c2cc(NCCc3c(C)sc4c(OC)ccc(Cl)c34)ncn2)sc1C(=O)O` [Example 30, 5-{6-[2-(4-Chloro-7-methoxy-2-methyl-benzo[b]thiophen-3-yl)-ethylamino]-pyrimidin-4-yl}-3-ethoxy-thiophene-2-carboxylic acid], the values for the IC50 in test [1], in test [2] and in test [3] were 10 nM, 18 nM and 8 nM, respectively.

As to `CCOc1cc(-c2cc(NCCc3c(C)oc4c(OC)cc(F)c(F)c34)ncn2)sc1C(=O)O` [Example 31, 5-{6-[2-(4,5-Difluoro-7-methoxy-2-methyl-benzofuran-3-yl)-ethylamino]-pyrimidin-4-yl}-3-ethoxy-thiophene-2-carboxylic acid], the IC50 in test [1] is 11 nM; in test [2] it was 27 nM; in test [3] it was 10 nM.

As for `CCOc1cc(-c2cc(NCCc3c(C)sc4c(C)cc(F)cc34)ncn2)sc1C(=O)O` [Example 32, 3-Ethoxy-5-{6-[2-(5-fluoro-2,7-dimethyl-benzo[b]thiophen-3-yl)-ethylamino]-pyrimidin-4-yl}-thiophene-2-carboxylic acid], the IC50 turned out to be 2 nM in test [1], 16 nM in test [2] and 2 nM in test [3].

Consider `CCOc1cc(-c2cc(NCCc3csc4ccccc34)ncn2)sc1C(=O)O` [Example 33, 5-[6-(2-Benzo[b]thiophen-3-yl-ethylamino)-pyrimidin-4-yl]-3-ethoxy-thiophene-2-carboxylic acid], for which the concentration for half-maximal inhibition (IC50) in test [1] is 19 nM; in test [2] it was 168 nM; in test [3], 17 nM.

For `CCOc1cc(-c2cc(NCCc3c(C)oc4c(OC)ccc(F)c34)ncn2)sc1C(=O)O` [Example 34, 3-Ethoxy-5-{6-[2-(4-fluoro-7-methoxy-2-methyl-benzofuran-3-yl)-ethylamino]-pyrimidin-4-yl}-thiophene-2-carboxylic acid], the concentration for half-maximal inhibition (IC50) in test [1] worked out at 6 nM; in test [2], 12 nM; in test [3] it was 6 nM.

`CCOc1cc(-c2cc(NCCc3c(C)oc4c(Cl)cccc34)ncn2)sc1C(=O)O` [Example 35, 5-{6-[2-(7-Chloro-2-methyl-benzofuran-3-yl)-ethylamino]-pyrimidin-4-yl}-3-ethoxy-thiophene-2-carboxylic acid]: the figures for the 50% inhibitory concentration (IC50) in test [1], in test [2] and in test [3] were 3 nM, 35 nM and 2 nM, respectively.
